This note sets out measurements from publication PMC10221314 (Pharmaceuticals, 2023).

Type in all cases: cell-based
The target of one series is T1, FXR (Homo sapiens, UniProt Q96RI1).
T1 construct: a fusion plasmid of Gal4 DBD-NR-LBD, which included PPARα, PPARβ, PPARγ, RXRα, RXRβ, RXRγ, LXRα, LXRβ, GPBAR, PXR, and FXR; expressed in transfected cells; host or cells: HEK-293T
T1 sequence (Q96RI1 262-486 limits assumed): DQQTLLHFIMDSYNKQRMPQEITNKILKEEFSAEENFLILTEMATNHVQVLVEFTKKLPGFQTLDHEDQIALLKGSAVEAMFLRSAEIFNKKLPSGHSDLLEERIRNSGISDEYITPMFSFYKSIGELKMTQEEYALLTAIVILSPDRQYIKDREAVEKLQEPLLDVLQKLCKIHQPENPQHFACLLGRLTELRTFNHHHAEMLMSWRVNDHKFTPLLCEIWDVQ
Put plainly: Yeast one-hybrid assay of FXR antagonistic activity in HEK-293T cells. The protocol:
Cell counting: HEK-293T cells in logarithmic growth phase were digested with 0.25% trypsin, collected, and centrifuged. The trypsin-containing medium was discarded, and 2 mL of fresh phenol red-free DMEM medium containing 5% fetal bovine serum was added. The cells were then mixed with the medium to prepare a cell suspension and counted on a cell counting plate.
Cell plating: A determined number of cells were taken from the cell suspension, diluted with phenol red-free DMEM medium containing 5% fetal bovine serum, and plated at a concentration of 10,000 cells per well (100 µL medium) in a 96-well plate. The plate was then incubated at 37 °C and 5% CO2 for 24 h.
Cell transfection: Fresh phenol red-free DMEM medium was taken in a sterile environment, and the previously extracted pFXR-Binding plasmid and PG4.35[luc2P-9XGA4UAS-Hygro] plasmid were added. The mixture was stirred and allowed to stand at 23 °C for 3 min. Then, a 3% amount of transfection reagent was added to the mixture, and it was allowed to stand at 23 °C for 15 min. The mixture was then added to the 96-well plate at a volume of 10 µL per well and incubated at 37 °C in a 5% CO2 environment for 24 h.
The OA derivatives were prepared as 10 mM DMSO stock solutions and further diluted in a concentration gradient, with 10 µL added to each well. The final concentrations of the derivatives ranged from 10 µM to 0.03 µM, with 7 concentration gradients using […] dilution. The test was set with 3 duplicated wells.
Antagonism activity test: The firefly-Renilla Dual Fluorescence Assay Kit (Promega, #E2940, Madison, WI, USA) was used to measure the antagonism activity of the OA derivatives. Firstly, the firefly fluorescence reagent was added to the 96-well plate at a volume of 70 µL per well and shaken in darkness for 15 min. Then, the fluorescence intensity was measured at a wavelength of 645 ± 30 nm in a microplate reader (BioTek, Winooski, VT, USA). Next, the volume of Renilla reagent was added to the 96-well plate at a volume of 70 µL per well and shaken in darkness for 15 min. The fluorescence intensity was then measured at a wavelength of 525 ± 20 nm.
Data processing: The fluorescence data of firefly were divided by the fluorescence data of Renilla to remove errors, and the antagonism efficiency was calculated using the following formula: antagonism efficiency (%) = [1 − (FCompds. − FDMSO)/(FCDCA − FDMSO)] × 100%. In the formula, F represents fluorescence intensity. The antagonistic efficiency data were obtained as a concentration–effect curve using Graphpad Prism 8.0 software, and the corresponding IC50 value was calculated.

The target in the next series is T2, PPARα (Homo sapiens, UniProt Q07869).
T2 construct: a fusion plasmid of Gal4 DBD-NR LBD (comprising RXRα, RXRβ, RXRγ, PPARα, PPARβ, PPARγ, LXRα, LXRβ, GPBAR, and PXR); expressed in transfected cells; host or cells: HEK-293T
T2 sequence (Q07869 239-466 limits assumed): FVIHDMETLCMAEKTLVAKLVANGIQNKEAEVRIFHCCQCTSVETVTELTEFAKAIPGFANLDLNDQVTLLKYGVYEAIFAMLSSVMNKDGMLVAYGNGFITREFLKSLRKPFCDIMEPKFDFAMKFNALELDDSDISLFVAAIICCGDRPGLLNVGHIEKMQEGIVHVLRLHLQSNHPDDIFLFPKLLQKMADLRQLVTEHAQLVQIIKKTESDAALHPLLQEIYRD
Put plainly: NR selectivity one-hybrid assay in HEK-293T cells (PPARα). The note with it: activated by fenofibrate. The protocol:
(§1) To assess the compound’s specificity, the mammalian one-hybrid assay was conducted. In this assay, HEK-293T cells were co-transfected with a fusion plasmid of Gal4 DBD-NR LBD (comprising RXRα, RXRβ, RXRγ, PPARα, PPARβ, PPARγ, LXRα, LXRβ, GPBAR, and PXR) and the UAS-TK-Luc reporter, followed by treatment with various concentrations of the compound. The positive control consisted of the corresponding nuclear receptor agonist, and the concentration used in the experiment was set to the EC50 of the agonist.
(§2) Figure 3 Compound 10b selectively antagonized FXR. The impact of compound 10b on various NRs was evaluated using a […] one-hybrid assay in HEK-293T cells. The cells were transiently co-transfected with a fusion plasmid of Gal4 DBD-NR-LBD, which included PPARα, PPARβ, PPARγ, RXRα, RXRβ, RXRγ, LXRα, LXRβ, GPBAR, PXR, and FXR, in combination with the UAS-TK-Luc reporter. […] The values are expressed as the means ± SE of three independent experiments. *: p < 0.05 vs. RA (relative agonist).

The test system of series [1] is RXRα, RXRβ, RXRγ, LXRα, LXRβ, PXR, PPARα, PPARβ, PPARγ, and GPBAR. Kind of series: NR selectivity one-hybrid assay in HEK-293T cells (panel of metabolic NRs). The protocol:
as §1, §2

The next series deals with LX-2 cells. Put plainly: mRNA expression of liver fibrosis marker genes in TGFβ1-induced LX-2 cells. The settings on record: 20 μM, induced by 2 ng·mL^−1 TGFβ1, 24 h. The protocol: Cells and liver tissue samples were subjected to RNA extraction and purification, followed by reverse transcription of equal amounts of total RNA into […] using a Transcriptor First Strand cDNA Synthesis Kit (Roche). The relative expression levels of the target gene were determined using TaqMan probe/primers with an ABI Q3 quantitative real-time PCR system, while GAPDH/Gapdh was utilized as an internal control for mRNA expression. The fold change in the expression of the target mRNA was calculated using Equation 2^−ΔΔCt.
(A–E) The LX-2 cells underwent a 24 h treatment of 2 ng·mL^−1 TGFβ1, with or without varying concentrations of candidate compounds, following FBS starvation. […] GAPDH/GAPDH was used as the loading control. The mean ± SD values were obtained from three independent assays. […] ANOVA was followed by Tukey’s test for statistical analysis.

A word on the IC50: it is the concentration that gives 50% inhibition. Compound `CC1(C)CCC2(C(=O)O)CCC3(C)C(C(OC(=O)CCC(NC(=O)OC(C)(C)C)C(=O)OC(C)(C)C)CC4C5(C)CCC(O)C(C)(C)C5CCC43C)C2C1` [Compound 10b, 3β-hydroxy-12β-(4′-((tert-butoxycarbonyl)amide)-5′-(tert-butoxy)-L-glutamte)oxy-13H-olean-28-oic acid] yielded an IC50 on FXR (HEK-293T cells, CDCA (50 μM) as agonist, mean ± SE of three independent tests) of 0.44 ± 0.15 µM. Moreover, on FXR (ratio of IC50 values), the “times more potent than 10d” value came to 8.3. The “antagonistic effects against PPARα” value on PPARα is reported as 10–20%. The “agonistic effect for tested NRs or GPBAR” value in series [1] is “no agonistic effect”. Further, in the series on LX-2 cells, the “mRNA expression of ACTA2” value is “significantly decrease”, the “mRNA expression of COL1A1” value is “significantly decrease”, the “mRNA expression of CTGF” value is reported as “significantly decrease” and the “mRNA expression of ITGAV” value was “significantly decrease”. In addition, in the series with LX-2 cells, the “mRNA expression of TGFb1” value is listed as “significantly decrease”.
